From patent US11214803B2, “Modulators of YAP1 expression” (Ionis Pharmaceuticals, Inc., priority 2019, dated 2022)
Strand notation (5' to 3'): a small letter for the sugar, then the base; units joined by * are phosphorothioate-linked, units joined directly phosphodiester-linked; [ ] holds rarer units or linkages, { } end groups; capitals alone tell only the bases. k = constrained ethyl (cEt); [5mC] = 5-methylcytosine; d = 2'-deoxy (DNA)

test system: Yap1 mRNA; assay: Antisense inhibition of human Yap1 in A-431 cells by cEt gapmers, single dose (Example 3, RTS36584); assay type: cell-based; settings: Table 9; A-431 cells, 5,000 cells per well, free uptake, 2,000 nM, approximately 48 hours; RTS36584; normalized to RIBOGREEN; Yap1 mRNA relative to untreated control cells
Procedure, shortened: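 Single-dose free-uptake screen of 3-10-3 cEt gapmers in A-431 cells at 2,000 nM over about 48 h. Values are % untreated control Yap1 mRNA.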

Row | Substance | YAP1 (% UTC)
1 | 958516 (k[5mC]*kT*kG*d[5mC]*dA*dG*dA*d[5mC]*dT*dG*d[5mC]*d[5mC]*d[5mC]*k[5mC]*kA*kA; antisense) [Compound 958516] | 38 % UTC
2 | 958521 (kT*kT*k[5mC]*d[5mC]*dA*dA*dT*dT*d[5mC]*dA*dT*d[5mC]*dA*kG*kA*kT; antisense) [Compound 958521] | 14 % UTC
3 | 958526 (kA*kG*kT*dA*dA*dG*dA*dA*d[5mC]*dA*dA*dT*d[5mC]*kT*kT*kG; antisense) [Compound 958526] | 6 % UTC
4 | 958531 (kG*kT*kA*dG*dG*dA*dG*d[5mC]*dA*dA*dG*dT*d[5mC]*kT*kT*kG; antisense) [Compound 958531] | 5 % UTC
5 | 958536 (kA*kG*kG*dG*dT*d[5mC]*dA*dA*dT*dT*dT*dT*d[5mC]*kA*kG*k[5mC]; antisense) [Compound 958536] | 3 % UTC
6 | 958541 (kG*kT*kA*dT*dT*d[5mC]*dT*dA*dT*d[5mC]*d[5mC]*dA*dG*kG*kG*kT; antisense) [Compound 958541] | 4 % UTC
7 | 958546 (k[5mC]*kA*kT*dA*d[5mC]*dT*d[5mC]*dT*dA*dG*dT*dT*dA*k[5mC]*kA*kT; antisense) [Compound 958546] | 6 % UTC
8 | 958551 (k[5mC]*kT*k[5mC]*d[5mC]*dT*dG*dT*dA*dG*dA*d[5mC]*dA*d[5mC]*kA*kT*kA; antisense) [Compound 958551] | 5 % UTC
9 | 958556 (k[5mC]*kA*kA*d[5mC]*d[5mC]*dA*dA*d[5mC]*dT*dA*dT*dT*dA*k[5mC]*kT*kT; antisense) [Compound 958556] | 10 % UTC

same assay, conditions: Table 10; A-431 cells, 5,000 cells per well, free uptake, 2,000 nM oligonucleotide, approx. 48 hours; primer probe set RTS36584; Yap1 mRNA normalized to RIBOGREEN, percent of untreated control

Row | Substance | YAP1 (% UTC)
10 | 958517 (kT*k[5mC]*kT*dA*dG*dA*dA*d[5mC]*dA*d[5mC]*dT*dA*dA*kA*k[5mC]*kT; antisense) [Compound 958517] | 88 % UTC
11 | 958522 (kA*kA*kT*dT*dA*dG*dT*d[5mC]*d[5mC]*dA*dA*dG*dG*kG*kA*kG; antisense) [Compound 958522] | 32 % UTC
12 | 958527 (kG*kT*kA*dA*dG*dT*dA*dA*dG*dA*dA*d[5mC]*dA*kA*kT*k[5mC]; antisense) [Compound 958527] | 4 % UTC
13 | 958532 (kG*kA*kA*dG*dT*dA*dG*dG*dA*dG*d[5mC]*dA*dA*kG*kT*k[5mC]; antisense) [Compound 958532] | 2 % UTC
14 | 958537 (k[5mC]*kA*kG*dG*dG*dT*d[5mC]*dA*dA*dT*dT*dT*dT*k[5mC]*kA*kG; antisense) [Compound 958537] | 3 % UTC
15 | 958542 (kT*kA*kT*dA*dG*dT*dA*dT*dT*d[5mC]*dT*dA*dT*k[5mC]*k[5mC]*kA; antisense) [Compound 958542] | 4 % UTC
16 | 958547 (k[5mC]*kA*k[5mC]*dA*dT*dA*d[5mC]*dT*d[5mC]*dT*dA*dG*dT*kT*kA*k[5mC]; antisense) [Compound 958547] | 4 % UTC
17 | 958552 (kT*kA*kT*dT*dA*d[5mC]*dT*d[5mC]*d[5mC]*dT*dG*dT*dA*kG*kA*k[5mC]; antisense) [Compound 958552] | 16 % UTC
18 | 958557 (k[5mC]*kA*k[5mC]*dA*dA*d[5mC]*d[5mC]*dA*dA*d[5mC]*dT*dA*dT*kT*kA*k[5mC]; antisense) [Compound 958557] | 10 % UTC

same assay, conditions: Table 11; A-431 cells, 5,000 cells per well, free uptake, 2,000 nM oligonucleotide, approx. 48 hours; primer probe set RTS36584; Yap1 mRNA normalized to RIBOGREEN, percent of untreated control

Row | Substance | YAP1 (% UTC)
19 | 958513 (kG*k[5mC]*kG*d[5mC]*dT*dA*d[5mC]*d[5mC]*dA*dT*dT*dT*dT*kA*kA*kA; antisense) [Compound 958513] | 104 % UTC
20 | 958518 (k[5mC]*k[5mC]*kA*d[5mC]*dA*dG*dT*dA*dA*dT*dA*dG*d[5mC]*kT*k[5mC]*kT; antisense) [Compound 958518] | 1 % UTC
21 | 958523 (kT*kT*k[5mC]*d[5mC]*dA*dA*dT*d[5mC]*dG*dA*dG*dA*d[5mC]*kT*kT*kA; antisense) [Compound 958523] | 3 % UTC
22 | 958528 (kA*kG*kT*d[5mC]*dT*dT*dG*dT*dA*dA*dG*dT*dA*kA*kG*kA; antisense) [Compound 958528] | 18 % UTC
23 | 958533 (kG*k[5mC]*kA*dT*dA*dG*dA*dA*dG*dT*dA*dG*dG*kA*kG*k[5mC]; antisense) [Compound 958533] | 3 % UTC
24 | 958538 (kA*kT*k[5mC]*d[5mC]*dA*dG*dG*dG*dT*d[5mC]*dA*dA*dT*kT*kT*kT; antisense) [Compound 958538] | 10 % UTC
25 | 958543 (kA*k[5mC]*k[5mC]*dT*dT*dA*dT*dA*dG*dT*dA*dT*dT*k[5mC]*kT*kA; antisense) [Compound 958543] | 4 % UTC
26 | 958548 (kG*kA*k[5mC]*dA*d[5mC]*dA*dT*dA*d[5mC]*dT*d[5mC]*dT*dA*kG*kT*kT; antisense) [Compound 958548] | 21 % UTC
27 | 958553 (k[5mC]*k[5mC]*kA*dT*dT*dA*dT*dT*dA*d[5mC]*dT*d[5mC]*d[5mC]*kT*kG*kT; antisense) [Compound 958553] | 1 % UTC
28 | 958558 (kT*kT*k[5mC]*dA*d[5mC]*dA*dA*d[5mC]*d[5mC]*dA*dA*d[5mC]*dT*kA*kT*kT; antisense) [Compound 958558] | 9 % UTC

same assay, conditions: Table 12; A-431 cells, 5,000 cells per well, free uptake, 2,000 nM modified oligonucleotide, approx. 48 hours; RTS36584; normalized to RIBOGREEN; Yap1 mRNA relative to untreated control cells

Row | Substance | YAP1 (% UTC)
29 | 958514 (kT*kA*k[5mC]*dT*dA*dG*dT*d[5mC]*dA*dT*dG*dT*dA*kT*kT*k[5mC]; antisense) [Compound 958514] | 20 % UTC
30 | 958519 (k[5mC]*k[5mC]*k[5mC]*d[5mC]*dT*dA*dG*dG*d[5mC]*dA*d[5mC]*dT*dA*kT*k[5mC]*k[5mC]; antisense) [Compound 958519] | 20 % UTC
31 | 958524 (kG*k[5mC]*kA*d[5mC]*dA*dT*dT*dA*dT*dG*dA*dA*d[5mC]*k[5mC]*kT*kA; antisense) [Compound 958524] | 13 % UTC
32 | 958529 (k[5mC]*kA*kA*dG*dT*d[5mC]*dT*dT*dG*dT*dA*dA*dG*kT*kA*kA; antisense) [Compound 958529] | 3 % UTC
33 | 958534 (kT*kT*k[5mC]*dA*dG*d[5mC]*dA*dT*dA*dG*dA*dA*dG*kT*kA*kG; antisense) [Compound 958534] | 3 % UTC
34 | 958539 (kT*k[5mC]*kT*dA*dT*d[5mC]*d[5mC]*dA*dG*dG*dG*dT*d[5mC]*kA*kA*kT; antisense) [Compound 958539] | 11 % UTC
35 | 958544 (kG*k[5mC]*kT*dA*dA*dA*dT*dT*d[5mC]*dA*dA*d[5mC]*dT*kA*k[5mC]*k[5mC]; antisense) [Compound 958544] | 8 % UTC
36 | 958549 (kT*kG*kT*dA*dG*dA*d[5mC]*dA*d[5mC]*dA*dT*dA*d[5mC]*kT*k[5mC]*kT; antisense) [Compound 958549] | 8 % UTC
37 | 958554 (kA*kA*k[5mC]*d[5mC]*dA*dT*dT*dA*dT*dT*dA*d[5mC]*dT*k[5mC]*k[5mC]*kT; antisense) [Compound 958554] | 1 % UTC
38 | 958559 (kA*kA*kT*dT*d[5mC]*dA*d[5mC]*dA*dA*d[5mC]*d[5mC]*dA*dA*k[5mC]*kT*kA; antisense) [Compound 958559] | 17 % UTC

same assay, conditions: Table 13; A-431 cells, 5,000 cells per well, free uptake, 2,000 nM modified oligonucleotide, approx. 48 hours; RTS36584; normalized to RIBOGREEN; Yap1 mRNA relative to untreated control cells

Row | Substance | YAP1 (% UTC)
39 | 958515 (k[5mC]*k[5mC]*k[5mC]*d[5mC]*dA*dA*d[5mC]*d[5mC]*dA*dG*dA*dT*dT*kT*kA*kA; antisense) [Compound 958515] | 28 % UTC
40 | 958520 (k[5mC]*kT*kA*d[5mC]*d[5mC]*dG*dT*dA*dT*dG*d[5mC]*d[5mC]*d[5mC]*kA*kG*kA; antisense) [Compound 958520] | 27 % UTC
41 | 958525 (kA*kT*kG*dA*dA*dG*dG*dT*dA*dA*dA*d[5mC]*d[5mC]*kA*k[5mC]*kT; antisense) [Compound 958525] | 3 % UTC
42 | 958530 (kG*kA*kG*d[5mC]*dA*dA*dG*dT*d[5mC]*dT*dT*dG*dT*kA*kA*kG; antisense) [Compound 958530] | 20 % UTC
43 | 958535 (kG*kG*kG*dT*d[5mC]*dA*dA*dT*dT*dT*dT*d[5mC]*dA*kG*k[5mC]*kA; antisense) [Compound 958535] | 10 % UTC
44 | 958540 (kA*kT*kT*d[5mC]*dT*dA*dT*d[5mC]*d[5mC]*dA*dG*dG*dG*kT*k[5mC]*kA; antisense) [Compound 958540] | 8 % UTC
45 | 958545 (kA*k[5mC]*kT*d[5mC]*dT*dA*dG*dT*dT*dA*d[5mC]*dA*dT*k[5mC]*kA*kT; antisense) [Compound 958545] | 3 % UTC
46 | 958550 (k[5mC]*k[5mC]*kT*dG*dT*dA*dG*dA*d[5mC]*dA*d[5mC]*dA*dT*kA*k[5mC]*kT; antisense) [Compound 958550] | 4 % UTC
47 | 958555 (kG*k[5mC]*kT*dT*dA*dT*dA*dT*dT*dG*dA*dA*dG*kA*kG*kT; antisense) [Compound 958555] | 4 % UTC
